Reference: the NIST ThermoML archive (doi:10.1021/je5005752)
Values joined by “and” are separate entries in the source; they are usually repeats but may differ in a detail not shown here. Equal values may be shown once.

Key:
[1] = 101 kPa, Liquid; for viscosity: Falling or rolling sphere viscometry; for mass density: Vibrating tube method
[2] = xn = mol fraction of the nth substance listed; conditions: 101 kPa, Liquid, x2 = 0; for viscosity: Falling or rolling sphere viscometry; for mass density: Vibrating tube method

CC(C)CO [2-methyl-1-propanol]
[1]
Conditions	mass density [kg/m3]	viscosity [mPa·s]
288.15 K	805.88	4.829
293.15 K	802.03	4.052
298.15 K	798.16	3.431
303.15 K	794.25	2.923
308.15 K	790.31	2.505
313.15 K	786.31	2.161
318.15 K	782.26	1.876
323.15 K	778.14	1.652

CC(C)CO [2-methyl-1-propanol] + CCCC(=O)OCC
[2]
Conditions	mass density [kg/m3]	viscosity [mPa·s]
288.15 K	805.88	4.829
293.15 K	802.03	4.052
298.15 K	798.16	3.431
303.15 K	794.25	2.923
308.15 K	790.31	2.505
313.15 K	786.31	2.161
318.15 K	782.26	1.876
323.15 K	778.14	1.652

CC(C)CCO [3-methylbutan-1-ol]
[1]
Conditions	mass density [kg/m3]	viscosity [mPa·s]
288.15 K	812.29	5.057
293.15 K	808.58	4.288
298.15 K	804.84	3.671
303.15 K	801.09	3.155
308.15 K	797.31	2.73
313.15 K	793.51	2.375
318.15 K	789.67	2.076
323.15 K	785.79	1.841

CC(C)CCO [3-methylbutan-1-ol] + CCCC(=O)OCC
[2]
Conditions	mass density [kg/m3]	viscosity [mPa·s]
288.15 K	812.29	5.057
293.15 K	808.58	4.288
298.15 K	804.84	3.671
303.15 K	801.09	3.155
308.15 K	797.31	2.73
313.15 K	793.51	2.375
318.15 K	789.67	2.076
323.15 K	785.79	1.841

CCCCO [butan-1-ol]
[1]
Conditions	mass density [kg/m3]	viscosity [mPa·s]
288.15 K	813.46	3.365
293.15 K	809.66	2.913
298.15 K	805.84	2.563
303.15 K	801.99	2.257
308.15 K	798.12	1.994
313.15 K	794.22	1.779
318.15 K	790.28	1.576
323.15 K	786.29	1.422

CCCCO [butan-1-ol] + CCCC(=O)OCC
[2]
Conditions	mass density [kg/m3]	viscosity [mPa·s]
288.15 K	813.46	3.365
293.15 K	809.66	2.913
298.15 K	805.84	2.563
303.15 K	801.99	2.257
308.15 K	798.12	1.994
313.15 K	794.22	1.779
318.15 K	790.28	1.576
323.15 K	786.29	1.422

CCCC(=O)OCC [ethyl butanoate]
[1]
Conditions	mass density [kg/m3]	viscosity
288.15 K	884.16	0.7224 mPa·s
293.15 K	878.9	0.6808 mPa·s
298.15 K	873.62	0.643 mPa·s
303.15 K	868.33	0.6072 mPa·s
308.15 K	863.02	0.5736 mPa·s
313.15 K	857.7	0.5424 mPa·s and 0.5425 mPa·s
318.15 K	852.36	0.5132 mPa·s
323.15 K	847	0.487 mPa·s

CCCCCCO [hexan-1-ol]
[1]
Conditions	mass density [kg/m3]	viscosity [mPa·s]
288.15 K	822.26	6.308
293.15 K	818.7	5.332
298.15 K	815.12	4.538
303.15 K	811.52	3.896
308.15 K	807.89	3.361
313.15 K	804.25	2.917
318.15 K	800.56	2.546
323.15 K	796.85	2.241

CCCCCCO [hexan-1-ol] + CCCC(=O)OCC
[2]
Conditions	mass density [kg/m3]	viscosity [mPa·s]
288.15 K	822.26	6.308
293.15 K	818.7	5.332
298.15 K	815.12	4.538
303.15 K	811.52	3.896
308.15 K	807.89	3.361
313.15 K	804.25	2.917
318.15 K	800.56	2.546
323.15 K	796.85	2.241

CCCO [propan-1-ol]
[1]
Conditions	mass density [kg/m3]	viscosity [mPa·s]
288.15 K	807.75	2.514
293.15 K	803.77	2.208
298.15 K	799.76	1.95
303.15 K	795.72	1.727
308.15 K	791.64	1.542
313.15 K	787.52	1.378
318.15 K	783.36	1.236
323.15 K	779.14	1.124

CCCO [propan-1-ol] + CCCC(=O)OCC
[2]
Conditions	mass density [kg/m3]	viscosity [mPa·s]
288.15 K	807.75	2.514
293.15 K	803.77	2.208
298.15 K	799.76	1.95
303.15 K	795.72	1.727
308.15 K	791.64	1.542
313.15 K	787.52	1.378
318.15 K	783.36	1.236
323.15 K	779.14	1.124
